Test results published in PubChem BioAssay AID248 (DTP/NCI, 2004).
Where “and” joins values, the source holds several entries; their conditions need not be identical. Identical values can stand only once. Toxic doses and inconclusive results are not listed. Rule as the data show it: active = T/C of 150% or more; inactive = T/C below 125%.

Test system: L1210 leukemia ip in BDF1 mice, survival T/C
Experiment: NCI In Vivo Anticancer Drug Screen. Data for tumor model L1210 Leukemia (intraperitoneal) in B6D2F1 (BDF1) mice
Conditions: endpoint: mean survival time, higher = longer survival
How it was run: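 Mice bearing the transplanted tumor received compound or vehicle. Survival of the treated group was divided by that of the vehicle-treated control group to give the ratio.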

[1] = dose: 50.0 mg/kg/injection, schedule: Q01DX001 (ip), vehicle: saline
[2] = dose: 100.0 mg/kg/injection, schedule: Q01DX001 (ip), vehicle: Klucel (hydroxypropylcellulose) (HPC)
[3] = dose: 100.0 mg/kg/injection, schedule: Q01DX001 (ip), vehicle: saline
[4] = dose: 100.0 mg/kg/injection, schedule: Q04DX002 (ip), vehicle: saline
[5] = dose: 100.0 mg/kg/injection, schedule: Q01DX001 (ip), vehicle: carboxymethylcellulose (CMC)
[6] = dose: 200.0 mg/kg/injection, schedule: Q01DX001 (ip), vehicle: carboxymethylcellulose (CMC)
[7] = dose: 200.0 mg/kg/injection, schedule: Q01DX001 (ip), vehicle: saline
[8] = dose: 400.0 mg/kg/injection, schedule: Q01DX001 (ip), vehicle: saline

Measured: T/C

CC(N)C(=O)NC(C)C(=O)O (stereo not given)
inactive: dose: 25.0 mg/kg/injection, schedule: Q01DX001 (ip), vehicle: Klucel (hydroxypropylcellulose) (HPC) 97 % of control | dose: 25.0 mg/kg/injection, schedule: Q01DX001 (ip), vehicle: saline 102 % of control | dose: 25.0 mg/kg/injection, schedule: Q04DX002 (ip), vehicle: saline 102 % of control | dose: 50.0 mg/kg/injection, schedule: Q01DX001 (ip), vehicle: Klucel (hydroxypropylcellulose) (HPC) 97 % of control | [1] 97 % of control | dose: 50.0 mg/kg/injection, schedule: Q04DX002 (ip), vehicle: saline 96 % of control | [2] 97 % of control | [3] 93 % of control | [4] 102 % of control

CN(C=O)COCN(C)C=O
inactive: dose: 100.0 mg/kg/injection, schedule: Q01DX001 (ip), vehicle: other 98 % of control | dose: 100.0 mg/kg/injection, schedule: Q04DX003 (ip), vehicle: other 98 % of control | dose: 200.0 mg/kg/injection, schedule: Q01DX001 (ip), vehicle: other 97 % of control | dose: 200.0 mg/kg/injection, schedule: Q04DX003 (ip), vehicle: other 102 % of control | dose: 400.0 mg/kg/injection, schedule: Q01DX001 (ip), vehicle: other 97 % of control | dose: 400.0 mg/kg/injection, schedule: Q04DX003 (ip), vehicle: other 104 % of control

Cc1ccc(S(=O)(=O)NC(c2ccccc2)(c2ccccc2)c2ccc([N+](=O)[O-])cc2)cc1
inactive: dose: 100.0 mg/kg/injection, schedule: Q01DX009 (ip), vehicle: saline 100 % of control | dose: 200.0 mg/kg/injection, schedule: Q01DX009 (ip), vehicle: saline 103 % of control | dose: 400.0 mg/kg/injection, schedule: Q01DX009 (ip), vehicle: saline 101 % of control

CCN(CC)CCCNC(C)CCCN(CC)CC (stereo not given)
inactive: dose: 50.0 mg/kg/injection, schedule: Q01DX009 (ip), vehicle: water 106 % of control | dose: 100.0 mg/kg/injection, schedule: Q01DX009 (ip), vehicle: water 97 % of control and 107 % of control | dose: 100.0 mg/kg/injection, schedule: Q04DX003 (ip), vehicle: water 98 % of control | dose: 200.0 mg/kg/injection, schedule: Q01DX009 (ip), vehicle: water 101 % of control and 103 % of control | dose: 200.0 mg/kg/injection, schedule: Q04DX003 (ip), vehicle: water 98 % of control | dose: 400.0 mg/kg/injection, schedule: Q01DX009 (ip), vehicle: water 93 % of control

CCCCCCCCCCOc1ccc(C2=C(c3ccccc3)C(=O)C(c3ccccc3)=C2c2ccccc2)cc1
inactive: [5] 100 % of control | [6] 105 % of control | dose: 400.0 mg/kg/injection, schedule: Q01DX001 (ip), vehicle: carboxymethylcellulose (CMC) 94 % of control

O=C(COc1ccc(Cl)c(Cl)c1)N(Cc1ccccc1)Cc1ccc[n+](Cc2ccc(Cl)cc2S(=O)(=O)F)c1
inactive: dose: 100.0 mg/kg/injection, schedule: Q04DX002 (ip), vehicle: Klucel (hydroxypropylcellulose) (HPC) 95 % of control | dose: 200.0 mg/kg/injection, schedule: Q04DX002 (ip), vehicle: Klucel (hydroxypropylcellulose) (HPC) 95 % of control | dose: 400.0 mg/kg/injection, schedule: Q04DX002 (ip), vehicle: Klucel (hydroxypropylcellulose) (HPC) 104 % of control

Cc1ccc(/C=N/NC(N)=S)nn1
inactive: [4] 117 % of control | dose: 200.0 mg/kg/injection, schedule: Q04DX002 (ip), vehicle: saline 98 % of control

CCCCOC(=O)/C=C\C(=O)NC(N)=O
inactive: dose: 31.0 mg/kg/injection, schedule: Q01DX Z (ip), vehicle: methylcellulose (MC) 98 % of control | dose: 51.0 mg/kg/injection, schedule: Q01DX Z (ip), vehicle: methylcellulose (MC) 101 % of control

CC1(C)N=C(N)N=C(N)N1c1cccc(OCc2cccc([N+](=O)[O-])c2)c1
inactive: dose: 5.0 mg/kg/injection, schedule: Q01DX001 (ip), vehicle: saline 104 % of control | dose: 10.0 mg/kg/injection, schedule: Q01DX001 (ip), vehicle: saline 98 % of control | dose: 20.0 mg/kg/injection, schedule: Q01DX001 (ip), vehicle: saline 110 % of control | dose: 40.0 mg/kg/injection, schedule: Q01DX001 (ip), vehicle: saline 89 % of control | [3] 96 % of control

[N-]=[N+]=C1N=NC=C1C(N)=O
inactive: [1] 98 % of control | [3] 107 % of control | [7] 107 % of control

Cc1ccc(S(=O)(=O)CO)cc1
inactive: dose: 50.0 mg/kg/injection, schedule: Q01DX009 (ip), vehicle: saline with Tween-80 108 % of control | dose: 100.0 mg/kg/injection, schedule: Q01DX009 (ip), vehicle: saline with Tween-80 89 % of control | dose: 200.0 mg/kg/injection, schedule: Q01DX009 (ip), vehicle: saline with Tween-80 97 % of control

CC(C)(C)C(=O)C(C)(C)C
inactive: [5] 106 % of control | [6] 101 % of control

CCCCCCCCCCCCCC(C)C
inactive: [3] 96 % of control | [7] 102 % of control | [8] 94 % of control

Cc1ccc(S(=O)(=O)NC(=O)N(C)c2cc(N3CCCC3)ccn2)cc1
inactive: [3] 102 % of control | [7] 96 % of control | [8] 100 % of control

Nc1ccc2nc3ccc(=O)cc-3n(-c3ccccc3)c2c1
inactive: dose: 0.5 mg/kg/injection, schedule: Q01DX Z (ip), vehicle: methylcellulose (MC) 108 % of control | dose: 0.9 mg/kg/injection, schedule: Q01DX Z (ip), vehicle: methylcellulose (MC) 96 % of control and 103 % of control | dose: 1.0 mg/kg/injection, schedule: Q01DX Z (ip), vehicle: methylcellulose (MC) 112 % of control | dose: 1.4 mg/kg/injection, schedule: Q01DX Z (ip), vehicle: methylcellulose (MC) 109 % of control and 110 % of control | dose: 2.0 mg/kg/injection, schedule: Q01DX Z (ip), vehicle: methylcellulose (MC) 116 % of control | dose: 2.1 mg/kg/injection, schedule: Q01DX Z (ip), vehicle: methylcellulose (MC) 107 % of control and 119 % of control | dose: 3.2 mg/kg/injection, schedule: Q01DX Z (ip), vehicle: methylcellulose (MC) 105 % of control and 122 % of control | dose: 5.0 mg/kg/injection, schedule: Q01DX001 (ip), vehicle: carboxymethylcellulose (CMC) 96 % of control | dose: 10.0 mg/kg/injection, schedule: Q01DX001 (ip), vehicle: carboxymethylcellulose (CMC) 105 % of control | dose: 20.0 mg/kg/injection, schedule: Q01DX001 (ip), vehicle: carboxymethylcellulose (CMC) 111 % of control | dose: 40.0 mg/kg/injection, schedule: Q01DX001 (ip), vehicle: carboxymethylcellulose (CMC) 113 % of control

CCOC(=O)C12CCC=C1N(S(=O)(=O)N(C)C)c1ccc(NS(=O)(=O)N(C)C)cc12 (stereo not given)
inactive: dose: 45.0 mg/kg/injection, schedule: Q04DX003 (ip), vehicle: Klucel (hydroxypropylcellulose) (HPC) 105 % of control | dose: 65.0 mg/kg/injection, schedule: Q04DX003 (ip), vehicle: Klucel (hydroxypropylcellulose) (HPC) 105 % of control | [2] 97 % of control | dose: 100.0 mg/kg/injection, schedule: Q04DX003 (ip), vehicle: Klucel (hydroxypropylcellulose) (HPC) 105 % of control and 120 % of control | dose: 200.0 mg/kg/injection, schedule: Q01DX001 (ip), vehicle: Klucel (hydroxypropylcellulose) (HPC) 104 % of control | dose: 200.0 mg/kg/injection, schedule: Q04DX003 (ip), vehicle: Klucel (hydroxypropylcellulose) (HPC) 89 % of control | dose: 400.0 mg/kg/injection, schedule: Q01DX001 (ip), vehicle: Klucel (hydroxypropylcellulose) (HPC) 98 % of control | dose: 400.0 mg/kg/injection, schedule: Q04DX003 (ip), vehicle: Klucel (hydroxypropylcellulose) (HPC) 97 % of control

COc1cc2c(cc1OC)Cc1cc(OC)c(OC)cc1Cc1cc(OC)c(OC)cc1C2
inactive: dose: 100.0 mg/kg/injection, schedule: Q04DX003 (ip), vehicle: saline 92 % of control | dose: 200.0 mg/kg/injection, schedule: Q04DX003 (ip), vehicle: saline 96 % of control | dose: 400.0 mg/kg/injection, schedule: Q04DX003 (ip), vehicle: saline 97 % of control
